Source: ChEMBL document CHEMBL1201862, “PubChem BioAssay data set” (2004)
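1) Cells in 96-well plates. 2) Compound, 48 h, 5 concentrations. 3) Linear interpolation between surrounding doses. 4) Unreached endpoint = highest concentration. At the GI50, growth is halved.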 Activity calls are given as the source filed them. No stated cut-off is given here; in the data, active = GI50 up to about 1.1 µM and inactive = higher.

What was measured:
Assay in all cases: DTP human tumour cell line panel, 48 h
BT-549 = test system: BT-549
CAKI-1 = test system: CAKI-1
COLO 205 = test system: COLO 205
HCT-116 = test system: HCT-116
HCT-15 = test system: HCT-15
Hs-578T = test system: Hs-578T
MOLT-4 = test system: MOLT-4
NCI-H226 = test system: NCI-H226
NCI/ADR-RES = test system: NCI/ADR-RES
OVCAR-5 = test system: OVCAR-5
RXF 393 = test system: RXF 393
SK-MEL-28 = test system: SK-MEL-28
SNB-75 = test system: SNB-75
T47D = test system: T47D
UACC-257 = test system: UACC-257
UACC-62 = test system: UACC-62
UO-31 = test system: UO-31
Malme-3M = test system: Malme-3M
NCI-H460 = test system: NCI-H460
HOP-62 = test system: HOP-62

| SMILES | GI50 (BT-549) | GI50 (CAKI-1) | GI50 (COLO 205) | GI50 (HCT-116) | GI50 (HCT-15) | GI50 (Hs-578T) | GI50 (MOLT-4) | GI50 (NCI-H226) | GI50 (NCI/ADR-RES) | GI50 (OVCAR-5) | GI50 (RXF 393) | GI50 (SK-MEL-28) | GI50 (SNB-75) | GI50 (T47D) | GI50 (UACC-257) | GI50 (UACC-62) | GI50 (UO-31) | GI50 (Malme-3M) | GI50 (NCI-H460) | GI50 (HOP-62) |
| --- | --- | --- | --- | --- | --- | --- | --- | --- | --- | --- | --- | --- | --- | --- | --- | --- | --- | --- | --- | --- |
| Cc1oc2nc(N(C)C)n3c(C)nnc3c2c1C | > 100 µM (inactive) | > 100 µM (inactive) | > 100 µM (inactive) | > 100 µM (inactive) | > 100 µM | > 100 µM (inactive) | > 100 µM (inactive) | > 100 µM (inactive) | > 100 µM (inactive) | > 100 µM (inactive) | > 100 µM (inactive) | > 100 µM (inactive) | > 100 µM (inactive) | > 100 µM (inactive) | > 100 µM (inactive) | > 100 µM (inactive) | > 100 µM (inactive) |  |  |  |
| CC(=O)Nc1ccc2nc(-c3ccccn3)c(-c3ccccn3)nc2c1 | > 100 µM (inactive) | > 100 µM (inactive) | > 100 µM (inactive) |  | > 100 µM | > 100 µM (inactive) | > 100 µM (inactive) | > 100 µM (inactive) | > 100 µM (inactive) | > 100 µM (inactive) | 89.7 µM (inactive) | > 100 µM (inactive) | > 100 µM (inactive) |  | > 100 µM (inactive) | > 100 µM (inactive) | > 100 µM (inactive) | > 100 µM (inactive) | > 100 µM (inactive) |  |
| COc1ccc(-c2nc(Nc3ccccc3)sc2Cc2sc(Nc3ccccc3)nc2-c2ccc(OC)cc2)cc1 | > 100 µM (inactive) | > 100 µM (inactive) | 7.57 µM (inactive) | 43.4 µM (inactive) | > 100 µM |  | 12.6 µM (inactive) | > 100 µM (inactive) | > 100 µM (inactive) | > 100 µM (inactive) | 4.35 µM (inactive) | > 100 µM (inactive) | > 100 µM (inactive) | 38.5 µM (inactive) | > 100 µM (inactive) | > 100 µM (inactive) | > 100 µM (inactive) | > 100 µM (inactive) | 51.8 µM (inactive) | > 100 µM (inactive) |
| CC(C)OC(=O)C1=C2c3ncccc3C(=O)N2[C@@H](Cl)[C@H](Cl)[C@H]1Cl | 36.9 µM (inactive) | > 100 µM (inactive) | 44 µM (inactive) | 50.6 µM (inactive) | 70.3 µM | > 100 µM (inactive) | 22.5 µM (inactive) | > 100 µM (inactive) | > 100 µM (inactive) | > 100 µM (inactive) | > 100 µM (inactive) | > 100 µM (inactive) |  |  | 34 µM (inactive) | > 100 µM (inactive) | > 100 µM (inactive) | 28.8 µM (inactive) | > 100 µM (inactive) | > 100 µM (inactive) |
| C=C1CN(Cc2ccccc2)[C@@H]2CCCCC[C@H](C#N)[C@H]12 | > 100 µM (inactive) | > 100 µM (inactive) | > 100 µM (inactive) | > 72.4 µM (inactive) | > 100 µM |  | 24.3 µM (inactive) | > 69.3 µM (inactive) | > 77.4 µM (inactive) | > 100 µM (inactive) | > 60.8 µM (inactive) | > 100 µM (inactive) | > 100 µM (inactive) | > 100 µM (inactive) | > 100 µM (inactive) | > 100 µM (inactive) | > 63.4 µM (inactive) | > 100 µM (inactive) | > 78.2 µM (inactive) | > 69.2 µM (inactive) |
| O=c1nc2n(cc1/C=C\Br)C1CC(O)C(CO2)O1 (centres undefined) | > 100 µM (inactive) | > 100 µM (inactive) | > 100 µM (inactive) | > 100 µM (inactive) | > 100 µM |  | > 100 µM (inactive) | > 100 µM (inactive) | > 100 µM (inactive) | > 100 µM (inactive) | 25 µM (inactive) | > 100 µM (inactive) | > 100 µM (inactive) | > 100 µM (inactive) | > 100 µM (inactive) | > 100 µM (inactive) | > 100 µM (inactive) | > 100 µM (inactive) | > 100 µM (inactive) | > 100 µM (inactive) |
| CSc1ncc2c(n1)-c1ccccc1OC2N1CCCC1 (centres undefined) | 75 µM (inactive) | 31 µM (inactive) | > 100 µM (inactive) | > 100 µM (inactive) | 49.9 µM | 39.1 µM (inactive) | 79.8 µM (inactive) | 31 µM (inactive) | 93.8 µM (inactive) | > 100 µM (inactive) | 64.6 µM (inactive) |  | 41.7 µM (inactive) | 35.8 µM (inactive) | > 100 µM (inactive) | 26.4 µM (inactive) | 42.4 µM (inactive) |  | > 100 µM (inactive) |  |
| Nc1ccccc1CCN1CCN(CCCc2ccccc2)CC1 | > 100 µM (inactive) | 57.3 µM (inactive) | 21 µM (inactive) | 34.7 µM (inactive) | 33.2 µM | > 100 µM (inactive) | 53.3 µM (inactive) | 44.5 µM (inactive) | 90.4 µM (inactive) | > 100 µM (inactive) |  | 97.7 µM (inactive) |  | 20.8 µM (inactive) | 32.5 µM (inactive) | 84.3 µM (inactive) | 27.3 µM (inactive) | 14.1 µM (inactive) | 41.1 µM (inactive) | > 100 µM (inactive) |
| O=c1[nH][nH]c(=O)c2c1ccc1oc3ccccc3c12 | > 100 µM (inactive) | 45.8 µM (inactive) | > 100 µM (inactive) | > 100 µM (inactive) |  | > 100 µM (inactive) | > 100 µM (inactive) | > 100 µM (inactive) |  | > 100 µM (inactive) | > 100 µM (inactive) | > 100 µM (inactive) | > 100 µM (inactive) | > 100 µM (inactive) | > 100 µM (inactive) | > 100 µM (inactive) | > 100 µM (inactive) | > 100 µM (inactive) | > 100 µM (inactive) | > 100 µM (inactive) |
| CCOC(=O)/C=C(/C)Nc1nc2c(c(C(=O)OC)c1C#N)CCCC2 | > 100 µM (inactive) | > 100 µM (inactive) | > 100 µM (inactive) | > 100 µM (inactive) | > 100 µM | > 100 µM (inactive) | 63 µM (inactive) | > 100 µM (inactive) | > 100 µM (inactive) | > 100 µM (inactive) | > 100 µM (inactive) | > 100 µM (inactive) |  | > 100 µM (inactive) | > 100 µM (inactive) | > 100 µM (inactive) | > 100 µM (inactive) | > 100 µM (inactive) | > 100 µM (inactive) | > 100 µM (inactive) |
| COC1(OC)N=C(N)C2(C#N)C(c3ccccc3)NC3=C(CCC3)C12C#N (centres undefined) | > 100 µM (inactive) | > 100 µM (inactive) | > 100 µM (inactive) | > 100 µM (inactive) | > 100 µM | > 100 µM (inactive) | > 100 µM (inactive) | > 100 µM (inactive) | > 100 µM (inactive) | > 100 µM (inactive) | > 100 µM (inactive) | > 100 µM (inactive) |  | > 100 µM (inactive) | > 100 µM (inactive) | > 100 µM (inactive) | > 100 µM (inactive) | > 100 µM (inactive) | > 100 µM (inactive) | > 100 µM (inactive) |
| CC(C)CCn1nc(N)c2nc3ccccc3nc21 | > 100 µM (inactive) | 64.4 µM (inactive) |  | 56 µM (inactive) | > 10 µM | > 100 µM (inactive) | 26.3 µM (inactive) | 61.8 µM (inactive) | > 100 µM (inactive) | > 100 µM (inactive) | > 100 µM (inactive) | > 100 µM (inactive) | > 100 µM (inactive) |  | > 100 µM (inactive) | > 100 µM (inactive) | > 100 µM (inactive) | > 100 µM (inactive) | 57 µM (inactive) | > 100 µM (inactive) |
| CC1=C(C(=O)NC(C)(C)C)CC(C(=O)NC(C)(C)C)C(C)N1 (centres undefined) | > 100 µM (inactive) | > 100 µM (inactive) | > 100 µM (inactive) | > 100 µM (inactive) | > 100 µM | > 100 µM (inactive) | > 100 µM (inactive) | > 100 µM (inactive) | > 100 µM (inactive) | > 100 µM (inactive) | > 100 µM (inactive) |  | 40.4 µM (inactive) | > 100 µM (inactive) | > 100 µM (inactive) | > 100 µM (inactive) | > 100 µM (inactive) |  | > 100 µM (inactive) | > 100 µM (inactive) |
| CC1C2CC(C(S(=O)(=O)O)C2=O)C1(C)C (centres undefined) | > 100 µM (inactive) |  | > 100 µM (inactive) | > 100 µM (inactive) |  | > 100 µM (inactive) | > 100 µM (inactive) | > 100 µM (inactive) |  | > 100 µM (inactive) | > 100 µM (inactive) | > 100 µM (inactive) | > 100 µM (inactive) | > 100 µM (inactive) | > 100 µM (inactive) | > 100 µM (inactive) | > 100 µM (inactive) | > 100 µM (inactive) | > 100 µM (inactive) | > 100 µM (inactive) |
| Nc1ccc(-c2nc3ccc(F)cc3s2)cc1I | > 100 µM (inactive) | > 100 µM (inactive) | > 100 µM (inactive) | < 0.01 µM (active) | > 100 µM | 22.2 µM (inactive) | 12.4 µM (inactive) |  | > 31 µM (inactive) | 0.0515 µM (active) | > 26.1 µM (inactive) | > 100 µM (inactive) | 30.8 µM (inactive) |  | > 100 µM (inactive) | > 79.6 µM (inactive) | > 100 µM (inactive) | > 100 µM (inactive) | > 100 µM (inactive) | 47.1 µM (inactive) |
| Oc1cc(-c2ccccc2)nc2cc3c(cc12)OCO3 | 40.8 µM (inactive) |  | 6.21 µM (inactive) | 8 µM (inactive) | 18.8 µM | 24.5 µM (inactive) | 15.1 µM (inactive) | 11.8 µM (inactive) |  | > 84.3 µM (inactive) | 5.69 µM (inactive) | 6.75 µM (inactive) | 2.6 µM (inactive) | 42.1 µM (inactive) | 44.5 µM (inactive) | 5.52 µM (inactive) | 13.1 µM (inactive) | 3.76 µM (inactive) | 7.87 µM (inactive) | 9.55 µM (inactive) |
